Experimental data published in US9593305B2, “Differentiation of pluripotent stem cells” (Janssen Biotech, Inc., priority 2008, dated 2017).

What was measured:
[1] = system: H1 human embryonic stem cells; assay: Definitive endoderm formation with TGF superfamily members, SOX17 and cell number (Example 14); format: cell-based; conditions: growth factor with 20 ng/ml Wnt3a, three days
Experimental: Clusters were centrifuged at low speed to collect a cell pellet and remove residual dispase. […] All human embryonic stem cell lines were maintained at passage numbers less than 50 and routinely evaluated for normal karyotype and absence of mycoplasma.
Cells were washed again three times with PBS and blocked with 4% chicken serum (Invitrogen; Cat #16110082) in PBS for 30 minutes at room temperature. […] Plates were washed once with PBS and left in 100 μl/well PBS for imaging.

[2] = system: H1 human embryonic stem cells; assay: MTS assay of cell proliferation during definitive endoderm differentiation (Example 23); format: cell-based; conditions: 100 ng/ml growth factor with 8 ng/ml bFGF, with or without Wnt3a
Experimental: Stock cultures of human embryonic stem cells (H1 human embryonic stem cell line) were maintained in an undifferentiated, pluripotent state on reduced growth factor […]™ (BD Biosciences; Cat #356231)-coated dishes in MEF conditioned medium with passage on average every four days. Passage was performed by exposing cell cultures to a solution of 1 mg/ml dispase (Invitrogen, Cat #: 17105-041) for 5 to 7 minutes at 37° C. followed by rinsing the monolayer with MEF conditioned culture medium and gentle scraping to recover cell clusters. Clusters were centrifuged at low speed to collect a cell pellet and remove residual dispase. Cell clusters were split at a 1:3 or 1:4 ratio for routine maintenance culture or a 1:1 ratio for immediate assay. All human embryonic stem cell lines were maintained at passage numbers less than 50 and routinely evaluated for normal karyotypic phenotype and for absence of mycoplasma contamination. […]
At the conclusion of 24, 48, or 72 hours of culture, one set of assay plates was subjected to a MTS assay (Promega; Cat#G3581), following the manufacturer's instructions. In brief, 20 μl of MTS was added to each well, and assay plates were incubated at 37° C., 5% CO2 for four hours prior to taking OD490 readings. […]

Substance	SOX17 expression in combination with Wnt3a [1]	OD490 (MTS) over the three day assay, control treatments [2]
Activin A: recombinant human activin A (PeproTech), TGF-beta family member	robust expression of SOX17	incremental increases in OD490
GDF-8: growth factor GDF-8, also known as myostatin, member of the TGF-β family	significant induction of SOX17 expression	decrease in OD490 relative to activin A treatment
